The source of these data is US20230219921A1, “KCNT1 INHIBITORS AND METHODS OF USE” (Praxis Precision Medicines, Inc., priority 2020, published 2023).

For this experiment, the target named is T1, KCNT1 (KNa1.1, Slack) (Homo sapiens, UniProt Q5JUK3).
T1 construct: expressed in transfected cells; host or cells: HEK-TREX (tetracycline-inducible HEK cell line)
T1 sequence (Q5JUK3 1-1230): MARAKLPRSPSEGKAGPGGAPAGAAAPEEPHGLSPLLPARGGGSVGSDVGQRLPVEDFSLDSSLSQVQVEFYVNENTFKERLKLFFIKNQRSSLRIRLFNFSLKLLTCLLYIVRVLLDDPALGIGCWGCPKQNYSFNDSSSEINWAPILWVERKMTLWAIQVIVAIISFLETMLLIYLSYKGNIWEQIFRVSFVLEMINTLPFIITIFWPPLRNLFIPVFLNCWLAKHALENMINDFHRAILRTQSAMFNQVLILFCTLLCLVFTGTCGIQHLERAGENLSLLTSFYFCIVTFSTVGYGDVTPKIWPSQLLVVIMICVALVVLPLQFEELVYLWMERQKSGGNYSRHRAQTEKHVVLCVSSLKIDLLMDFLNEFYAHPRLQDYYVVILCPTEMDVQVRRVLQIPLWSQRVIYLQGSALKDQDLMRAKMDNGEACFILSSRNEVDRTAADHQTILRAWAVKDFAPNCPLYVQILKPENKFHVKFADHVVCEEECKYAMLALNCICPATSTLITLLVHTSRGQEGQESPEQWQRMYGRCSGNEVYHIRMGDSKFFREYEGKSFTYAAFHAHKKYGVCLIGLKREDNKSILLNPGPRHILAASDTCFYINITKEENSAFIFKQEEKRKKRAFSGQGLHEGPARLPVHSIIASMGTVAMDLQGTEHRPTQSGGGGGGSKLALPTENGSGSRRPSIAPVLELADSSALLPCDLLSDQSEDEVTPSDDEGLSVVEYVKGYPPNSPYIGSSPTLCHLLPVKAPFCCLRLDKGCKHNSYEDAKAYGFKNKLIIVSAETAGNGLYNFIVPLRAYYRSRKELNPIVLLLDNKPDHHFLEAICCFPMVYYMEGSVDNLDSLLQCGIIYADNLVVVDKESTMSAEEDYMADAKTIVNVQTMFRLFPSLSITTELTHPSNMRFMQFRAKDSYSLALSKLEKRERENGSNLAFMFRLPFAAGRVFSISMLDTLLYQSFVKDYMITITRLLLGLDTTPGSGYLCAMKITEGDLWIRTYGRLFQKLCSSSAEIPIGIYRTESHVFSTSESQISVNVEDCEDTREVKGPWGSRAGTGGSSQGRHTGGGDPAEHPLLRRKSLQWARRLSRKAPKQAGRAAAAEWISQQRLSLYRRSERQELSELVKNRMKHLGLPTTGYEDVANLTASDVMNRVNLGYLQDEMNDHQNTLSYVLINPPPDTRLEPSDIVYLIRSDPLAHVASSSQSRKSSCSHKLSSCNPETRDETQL
The experiment in a line: KCNT1 patch clamp assay (SyncroPatch 384PE automated patch clamp). Conditions: tetracycline inducible cell line (HEK-TREX); perforated patch mode; step from -80 mV to 0 mV; room temperature; read-out: KCNT1-WT IC50. It counts as cell-based. The procedure:
Inhibition of KCNT1 (KNa1.1, Slack) was evaluated using a tetracycline inducible cell line (HEK-TREX). Currents were recorded using the SyncroPatch 384PE automated, patch clamp system. Pulse generation and data collection were performed with PatchController384 V1.3.0 and DataController384 V1.2.1 (Nanion Technologies). The access resistance and apparent membrane capacitance were estimated using built-in protocols. Current were recorded in perforated patch mode (10 μM escin) from a population of cells. The cells were lifted, triturated, and resuspended at 800,000 cells/ml. The cells were allowed to recover in the cell hotel prior to experimentation. Currents were recorded at room temperature. The external solution contained the following (in mM): NaCl 105, NMDG 40, KCl 4, MgCl2 1, CaCl2 5 and HEPES 10 (pH=7.4, Osmolarity ˜300 mOsm). The extracellular solution was used as the wash, reference and compound delivery solution. The internal solution contained the following (in mM): NaCl 70, KF 70, KCl 10, EGTA 5, HEPES 5 and Escin 0.01 (pH=7.2, Osmolarity ˜295 mOsm). Escin is made at a 5 mM stock in water, aliquoted, and stored at −20° C. The compound plate was created at 2× concentrated in the extracellular solution. The compound was diluted to 1:2 when added to the recording well. The amount of DMSO in the extracellular solution was held constant at the level used for the highest tested concentration. A holding potential of −80 mV with a 100 ms step to 0 mV was used. Mean current was measured during the step to 0 mV. […] The average mean current from 3 sweeps was calculated and the % inhibition of each compound was calculated. The % Inhibition as a function of the compound concentration was fit with a Hill equation to derive IC50, slope, min and max parameters. If KCNT1 inhibition was less than 50% at the highest tested concentration or if an IC50 could not be calculated, then a percent inhibition was reported in place of the IC50.
In this table, “A” indicates IC50 of less than or equal to 1 μM; “B” indicates inhibition of between 1 μM to 20 μM; and “C” indicates inhibition of greater than or equal to 20 μM.

Bounds are passed on as bounds.

With `CC(C)Nc1ccc(CNC(=O)c2ccc(S(C)(=O)=O)s2)cc1` [Compound 41, N-(4-(isopropylamino)benzyl)-5-(methylsulfonyl)thiophene-2-carboxamide], the IC50 was at least 20000 nM.
Next, `CNS(=O)(=O)c1ccc(C(=O)NCc2ccc(Cl)cc2F)s1` [Compound 10, N-(4-chloro-2-fluorobenzyl)-5-(N-methylsulfamoyl)thiophene-2-carboxamide]: at most 1000 nM; `CNS(=O)(=O)c1ccc(C(=O)NCc2ccc(C(F)(F)F)cc2C)s1` [Compound 45, N-(2-methyl-4-(trifluoromethyl)benzyl)-5-(N-methylsulfamoyl)thiophene-2-carboxamide]: at most 1000 nM.
For `CNS(=O)(=O)c1ccc(C(=O)NCc2ccc(Cl)c(F)c2)s1` [Compound 20, N-(4-chloro-3-fluorobenzyl)-5-(N-methylsulfamoyl)thiophene-2-carboxamide], the IC50 was at most 1000 nM.
Consider `CS(=O)(=O)c1ccc(C(=O)NCc2ccc(C(F)F)cc2)s1` [Compound 51, N-(4-(difluoromethyl)benzyl)-5-(methylsulfonyl)thiophene-2-carboxamide], for which the IC50 was at most 1000 nM.
Next, `CNS(=O)(=O)c1ccc(C(=O)NCc2ccc(C3(C(F)(F)F)CC3)cc2)s1` [Compound 36, 5-(N-methylsulfamoyl)-N-(4-(1-(trifluoromethyl)cyclopropyl)benzyl)thiophene-2-carboxamide]: at most 1000 nM; `CNS(=O)(=O)c1ccc(C(=O)NCc2ccc(Br)cc2)s1` [Compound 21, N-(4-bromobenzyl)-5-(N-methylsulfamoyl)thiophene-2-carboxamide]: at most 1000 nM.
Take `O=C(NCc1ccc(Cl)cc1Cl)c1ccc(S(=O)(=O)C2CC2)s1` [Compound 15, 5-(Cyclopropylsulfonyl)-N-(2,4-dichlorobenzyl)thiophene-2-carboxamide]: the IC50 was at most 1000 nM.
For the molecule `CC(C)(C)c1ccc(CNC(=O)c2ccc(S(C)(=O)=O)s2)cc1` [Compound 32, N-(4-(tert-butyl)benzyl)-5-(methylsulfonyl)thiophene-2-carboxamide], the IC50 was at most 1000 nM.
For `CS(=O)(=O)c1ccc(C(=O)NCc2ccc(C(F)(F)F)nc2)s1` [Compound 46, 5-(methylsulfonyl)-N-((6-(trifluoromethyl)pyridin-3-yl)methyl)thiophene-2-carboxamide], the IC50 lay in the range of 1000 to 20000 nM.
Then `Cc1cc(C(F)(F)F)ncc1CNC(=O)c1ccc(S(C)(=O)=O)s1` [Compound 54, N-((4-methyl-6-(trifluoromethyl)pyridin-3-yl)methyl)-5-(methylsulfonyl)thiophene-2-carboxamide], with 1000 to 20000 nM; and `CNS(=O)(=O)c1ccc(C(=O)N[C@H](C)c2ccc(Cl)cc2)s1` [Compound 4, (R)—N-(1-(4-chlorophenyl)ethyl)-5-(N-methylsulfamoyl)thiophene-2-carboxamide], with at most 1000 nM; and `CS(=O)(=O)c1ccc(C(=O)NCc2ccc(C(F)(F)F)cc2)s1` [Compound 33, 5-(methylsulfonyl)-N-(4-(trifluoromethyl)benzyl)thiophene-2-carboxamide], with at most 1000 nM.
Next, `CNS(=O)(=O)c1ccc(C(=O)NCc2ccc(C#N)cc2)s1` [Compound 17, N-(4-cyanobenzyl)-5-(N-methylsulfamoyl)thiophene-2-carboxamide]: 1000 to 20000 nM; `CNS(=O)(=O)c1ccc(C(=O)NCc2ccc(C(F)(F)F)cc2)s1` [Compound 29, 5-(N-methylsulfamoyl)-N-(4-(trifluoromethyl)benzyl)thiophene-2-carboxamide]: at most 1000 nM; `CNS(=O)(=O)c1ccc(C(=O)NCc2ccc(Cl)cc2C(F)(F)F)s1` [Compound 8, N-(4-chloro-2-(trifluoromethyl)benzyl)-5-(N-methylsulfamoyl)thiophene-2-carboxamide]: at most 1000 nM.
Then `CNS(=O)(=O)c1ccc(C(=O)NCc2ccc(Cl)cc2)s1` [Compound 7, N-(4-chlorobenzyl)-5-(N-methylsulfamoyl)thiophene-2-carboxamide], with at most 1000 nM; and `CS(=O)(=O)c1ccc(C(=O)NCc2ccc(N3CCCC3)cc2)s1` [Compound 23, 5-(methylsulfonyl)-N-(4-(pyrrolidin-1-yl)benzyl)thiophene-2-carboxamide], with at least 20000 nM; and `CS(=O)(=O)c1ccc(C(=O)NCc2ccc(OCC(F)(F)F)cc2)s1` [Compound 34, 5-(methylsulfonyl)-N-(4-(2,2,2-trifluoroethoxy)benzyl)thiophene-2-carboxamide], with 1000 to 20000 nM.
Consider `CNS(=O)(=O)c1ccc(C(=O)NCc2ccc(C(C)C)cc2)s1` [Compound 19, N-(4-isopropylbenzyl)-5-(N-methylsulfamoyl)thiophene-2-carboxamide], for which the IC50 was at most 1000 nM.
In the case of `CS(=O)(=O)c1ccc(C(=O)NCc2ccc(C(F)(F)F)cn2)s1` [Compound 48, 5-(methylsulfonyl)-N-((5-(trifluoromethyl)pyridin-2-yl)methyl)thiophene-2-carboxamide], the IC50 was in the range of 1000 to 20000 nM.
Then `CNS(=O)(=O)c1ccc(C(=O)NCc2ccc(C3CC3)cc2)s1` [Compound 26, N-(4-cyclopropylbenzyl)-5-(N-methylsulfamoyl)thiophene-2-carboxamide], with at most 1000 nM.
For `CNS(=O)(=O)c1ccc(C(=O)NCc2ccc(Cl)cc2Cl)s1` [Compound 3, N-(2,4-dichlorobenzyl)-5-(N-methylsulfamoyl)thiophene-2-carboxamide], the IC50 is at most 1000 nM.
Next, `CS(=O)(=O)c1ccc(C(=O)NCc2ccc(C3(C(F)(F)F)CC3)cc2)s1` [Compound 37, 5-(methylsulfonyl)-N-(4-(1-(trifluoromethyl)cyclopropyl)benzyl)thiophene-2-carboxamide]: at most 1000 nM; `CC(C)c1ccc(CNC(=O)c2ccc(S(C)(=O)=O)s2)cc1` [Compound 24, N-(4-isopropylbenzyl)-5-(methylsulfonyl)thiophene-2-carboxamide]: at most 1000 nM.
On to `CNS(=O)(=O)c1ccc(C(=O)NCc2ccc(NC(C)C)cc2)s1` [Compound 40, N-(4-(isopropylamino)benzyl)-5-(N-methylsulfamoyl)thiophene-2-carboxamide], for which the IC50 is at least 20000 nM.
